Results taken from PMC9817970 (Cancers, 2022).

Assays:
Assay in all cases: Kinase panel profiling
Type in all cases: biochemical
Details in all cases: 10 μM ATP
HPK1/MAP4K1 = target: T1, HPK1/MAP4K1 (Homo sapiens, UniProt Q92918)
T1 construct: purchased Reaction Biology Corp
Description: (§1) Kinase panel profiling was conducted by Reaction Biology Corp. (San Diego, CA, USA). A single dose (1.0 μM) of 6r was tested against 371 recombinant human kinases in the presence of 10 μM ATP.

ZAP70 = target: T2, ZAP70 (Homo sapiens, UniProt P43403)
T2 construct: purchased Reaction Biology Corp
Description: as §1

CDK17/cyclin Y (PCTK2) = target: T3, CDK17/cyclin Y (PCTK2) (Homo sapiens, UniProt Q00537)
T3 construct: purchased Reaction Biology Corp
Description: as §1

BMPR2 = target: T4, BMPR2 (Homo sapiens, UniProt Q13873)
T4 construct: purchased Reaction Biology Corp
Description: as §1

DYRK1B = target: T5, DYRK1B (Homo sapiens, UniProt Q9Y463)
T5 construct: purchased Reaction Biology Corp
Description: as §1

BRSK1 = target: T6, BRSK1 (Homo sapiens, UniProt Q8TDC3)
T6 construct: purchased Reaction Biology Corp
Description: as §1

CAMKK1 = target: T7, CAMKK1 (Homo sapiens, UniProt Q8N5S9)
T7 construct: purchased Reaction Biology Corp
Description: as §1

ERK5/MAPK7 = target: T8, ERK5/MAPK7 (Homo sapiens, UniProt Q13164)
T8 construct: purchased Reaction Biology Corp
Description: as §1

STK32C/YANK3 = target: T9, STK32C/YANK3 (Homo sapiens, UniProt Q86UX6)
T9 construct: purchased Reaction Biology Corp
T9 sequence (Q86UX6 whole entry): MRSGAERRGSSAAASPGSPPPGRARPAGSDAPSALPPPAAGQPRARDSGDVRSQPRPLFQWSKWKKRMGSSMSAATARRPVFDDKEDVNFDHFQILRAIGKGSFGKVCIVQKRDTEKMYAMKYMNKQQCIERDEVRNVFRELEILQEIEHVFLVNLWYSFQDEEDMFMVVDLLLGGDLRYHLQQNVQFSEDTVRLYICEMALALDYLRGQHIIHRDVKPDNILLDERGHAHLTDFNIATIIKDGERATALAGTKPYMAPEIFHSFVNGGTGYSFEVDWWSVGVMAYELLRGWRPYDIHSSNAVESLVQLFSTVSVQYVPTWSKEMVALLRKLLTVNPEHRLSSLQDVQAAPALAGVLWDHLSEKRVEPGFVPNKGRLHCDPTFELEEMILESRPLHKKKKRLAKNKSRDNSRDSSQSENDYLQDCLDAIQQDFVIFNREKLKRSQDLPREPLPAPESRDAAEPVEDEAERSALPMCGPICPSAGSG
Description: as §1

CDK8/cyclin C = target: T10, CDK8/cyclin C (Homo sapiens, UniProt P49336)
T10 construct: purchased Reaction Biology Corp
Description: as §1

PHKg1 = target: T11, PHKg1 (Homo sapiens, UniProt Q16816)
T11 construct: purchased Reaction Biology Corp
T11 sequence (Q16816 whole entry): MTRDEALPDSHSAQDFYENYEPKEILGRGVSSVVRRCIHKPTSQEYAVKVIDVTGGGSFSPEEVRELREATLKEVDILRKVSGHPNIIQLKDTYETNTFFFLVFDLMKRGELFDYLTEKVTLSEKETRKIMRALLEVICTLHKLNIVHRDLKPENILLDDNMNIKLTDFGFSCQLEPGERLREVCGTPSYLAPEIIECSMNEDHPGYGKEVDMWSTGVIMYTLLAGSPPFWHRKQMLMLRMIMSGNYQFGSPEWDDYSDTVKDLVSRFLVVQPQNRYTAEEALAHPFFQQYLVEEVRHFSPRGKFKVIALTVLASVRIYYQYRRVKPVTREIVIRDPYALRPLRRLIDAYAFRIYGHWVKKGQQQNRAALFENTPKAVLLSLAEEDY
Description: as §1

ULK2 = target: T12, ULK2 (Homo sapiens, UniProt Q8IYT8)
T12 construct: purchased Reaction Biology Corp
T12 sequence (Q8IYT8 whole entry): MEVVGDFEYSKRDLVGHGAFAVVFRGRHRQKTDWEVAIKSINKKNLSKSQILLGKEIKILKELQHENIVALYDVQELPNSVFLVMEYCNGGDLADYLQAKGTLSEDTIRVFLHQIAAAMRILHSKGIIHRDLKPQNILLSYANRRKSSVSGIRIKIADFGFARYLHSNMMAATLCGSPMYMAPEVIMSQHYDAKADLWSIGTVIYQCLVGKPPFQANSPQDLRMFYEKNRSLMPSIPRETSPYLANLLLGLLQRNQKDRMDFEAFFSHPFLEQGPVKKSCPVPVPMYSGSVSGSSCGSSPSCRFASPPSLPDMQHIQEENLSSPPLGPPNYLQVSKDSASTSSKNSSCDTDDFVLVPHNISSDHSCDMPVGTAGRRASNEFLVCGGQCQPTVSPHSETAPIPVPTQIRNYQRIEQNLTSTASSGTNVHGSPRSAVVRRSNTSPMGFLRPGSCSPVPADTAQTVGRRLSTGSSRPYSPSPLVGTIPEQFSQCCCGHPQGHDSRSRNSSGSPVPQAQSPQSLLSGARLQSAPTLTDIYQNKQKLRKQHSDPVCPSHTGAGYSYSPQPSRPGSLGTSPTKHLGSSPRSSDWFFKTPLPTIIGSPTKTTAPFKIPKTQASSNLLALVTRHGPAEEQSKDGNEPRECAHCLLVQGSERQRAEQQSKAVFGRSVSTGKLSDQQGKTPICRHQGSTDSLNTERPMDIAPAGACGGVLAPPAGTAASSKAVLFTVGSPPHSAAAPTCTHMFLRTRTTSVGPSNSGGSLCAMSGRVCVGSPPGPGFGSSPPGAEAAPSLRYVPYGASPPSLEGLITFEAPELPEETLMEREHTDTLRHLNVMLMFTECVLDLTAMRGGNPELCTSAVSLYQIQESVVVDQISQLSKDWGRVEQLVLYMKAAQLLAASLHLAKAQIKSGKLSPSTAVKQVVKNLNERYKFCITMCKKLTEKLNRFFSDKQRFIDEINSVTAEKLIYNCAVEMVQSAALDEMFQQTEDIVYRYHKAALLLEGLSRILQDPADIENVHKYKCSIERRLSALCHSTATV
Description: as §1

ALK6/BMPR1B = target: T13, ALK6/BMPR1B (Homo sapiens, UniProt O00238)
T13 construct: purchased Reaction Biology Corp
Description: as §1

JNK2 = target: T14, JNK2 (Homo sapiens, UniProt P45984)
T14 construct: purchased Reaction Biology Corp
Description: as §1

MRCKb/CDC42BPB = target: T15, MRCKb/CDC42BPB (Homo sapiens, UniProt Q9Y5S2)
T15 construct: purchased Reaction Biology Corp
Description: as §1

GLK/MAP4K3 = target: T16, GLK/MAP4K3 (Homo sapiens, UniProt Q8IVH8)
T16 construct: purchased Reaction Biology Corp
Description: as §1

BMX/ETK = target: T17, BMX/ETK (Homo sapiens, UniProt P51813)
T17 construct: purchased Reaction Biology Corp
Description: as §1

SBK1 = target: T18, SBK1 (Homo sapiens, UniProt Q52WX2)
T18 construct: purchased Reaction Biology Corp
T18 sequence (Q52WX2 whole entry): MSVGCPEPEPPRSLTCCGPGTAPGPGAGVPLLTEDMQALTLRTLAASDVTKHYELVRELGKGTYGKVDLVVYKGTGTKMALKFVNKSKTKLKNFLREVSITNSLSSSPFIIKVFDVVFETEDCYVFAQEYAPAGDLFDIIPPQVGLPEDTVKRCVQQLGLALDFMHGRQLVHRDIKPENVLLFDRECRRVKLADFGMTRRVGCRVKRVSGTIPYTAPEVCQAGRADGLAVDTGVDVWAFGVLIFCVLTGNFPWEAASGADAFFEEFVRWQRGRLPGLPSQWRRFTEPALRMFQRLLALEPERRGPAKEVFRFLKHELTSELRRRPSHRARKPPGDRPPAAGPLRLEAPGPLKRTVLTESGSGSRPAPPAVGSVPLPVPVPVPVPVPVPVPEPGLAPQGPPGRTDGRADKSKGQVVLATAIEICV
Description: as §1

DRAK1/STK17A = target: T19, DRAK1/STK17A (Homo sapiens, UniProt Q9UEE5)
T19 construct: purchased Reaction Biology Corp
T19 sequence (Q9UEE5 whole entry): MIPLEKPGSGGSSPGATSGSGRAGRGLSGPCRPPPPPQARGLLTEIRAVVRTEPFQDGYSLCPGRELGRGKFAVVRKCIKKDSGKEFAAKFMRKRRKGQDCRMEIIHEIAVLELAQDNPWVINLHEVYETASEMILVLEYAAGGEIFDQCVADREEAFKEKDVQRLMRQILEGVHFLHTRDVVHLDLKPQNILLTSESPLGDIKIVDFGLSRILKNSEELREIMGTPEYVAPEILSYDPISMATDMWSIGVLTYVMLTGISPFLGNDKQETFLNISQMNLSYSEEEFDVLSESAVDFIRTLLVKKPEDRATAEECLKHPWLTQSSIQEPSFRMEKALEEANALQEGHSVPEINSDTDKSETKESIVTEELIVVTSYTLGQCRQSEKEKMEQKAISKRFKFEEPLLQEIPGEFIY
Description: as §1

NEK3 = target: T20, NEK3 (Homo sapiens, UniProt P51956)
T20 construct: purchased Reaction Biology Corp
T20 sequence (P51956 whole entry): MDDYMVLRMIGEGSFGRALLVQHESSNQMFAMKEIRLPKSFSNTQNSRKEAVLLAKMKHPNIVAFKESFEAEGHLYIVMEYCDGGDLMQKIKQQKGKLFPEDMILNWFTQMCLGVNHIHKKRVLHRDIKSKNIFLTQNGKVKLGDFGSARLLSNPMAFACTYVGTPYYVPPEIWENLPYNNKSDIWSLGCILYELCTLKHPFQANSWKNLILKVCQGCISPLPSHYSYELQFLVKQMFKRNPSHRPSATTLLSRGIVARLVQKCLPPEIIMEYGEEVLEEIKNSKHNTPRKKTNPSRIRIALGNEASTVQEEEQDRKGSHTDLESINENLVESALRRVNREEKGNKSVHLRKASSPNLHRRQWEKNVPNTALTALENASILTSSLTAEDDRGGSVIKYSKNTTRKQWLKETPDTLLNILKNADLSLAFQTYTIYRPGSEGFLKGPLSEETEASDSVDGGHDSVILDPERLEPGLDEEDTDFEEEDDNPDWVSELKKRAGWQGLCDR
Description: as §1

SNARK/NUAK2 = target: T21, SNARK/NUAK2 (Homo sapiens, UniProt Q9H093)
T21 construct: purchased Reaction Biology Corp
Description: as §1

STK39/STLK3 = target: T22, STK39/STLK3 (Homo sapiens, UniProt Q9UEW8)
T22 construct: purchased Reaction Biology Corp
Description: as §1

MAST3 = target: T23, MAST3 (Homo sapiens, UniProt O60307)
T23 construct: purchased Reaction Biology Corp
Description: as §1

MLK3/MAP3K11 = target: T24, MLK3/MAP3K11 (Homo sapiens, UniProt Q16584)
T24 construct: purchased Reaction Biology Corp
T24 sequence (Q16584 whole entry): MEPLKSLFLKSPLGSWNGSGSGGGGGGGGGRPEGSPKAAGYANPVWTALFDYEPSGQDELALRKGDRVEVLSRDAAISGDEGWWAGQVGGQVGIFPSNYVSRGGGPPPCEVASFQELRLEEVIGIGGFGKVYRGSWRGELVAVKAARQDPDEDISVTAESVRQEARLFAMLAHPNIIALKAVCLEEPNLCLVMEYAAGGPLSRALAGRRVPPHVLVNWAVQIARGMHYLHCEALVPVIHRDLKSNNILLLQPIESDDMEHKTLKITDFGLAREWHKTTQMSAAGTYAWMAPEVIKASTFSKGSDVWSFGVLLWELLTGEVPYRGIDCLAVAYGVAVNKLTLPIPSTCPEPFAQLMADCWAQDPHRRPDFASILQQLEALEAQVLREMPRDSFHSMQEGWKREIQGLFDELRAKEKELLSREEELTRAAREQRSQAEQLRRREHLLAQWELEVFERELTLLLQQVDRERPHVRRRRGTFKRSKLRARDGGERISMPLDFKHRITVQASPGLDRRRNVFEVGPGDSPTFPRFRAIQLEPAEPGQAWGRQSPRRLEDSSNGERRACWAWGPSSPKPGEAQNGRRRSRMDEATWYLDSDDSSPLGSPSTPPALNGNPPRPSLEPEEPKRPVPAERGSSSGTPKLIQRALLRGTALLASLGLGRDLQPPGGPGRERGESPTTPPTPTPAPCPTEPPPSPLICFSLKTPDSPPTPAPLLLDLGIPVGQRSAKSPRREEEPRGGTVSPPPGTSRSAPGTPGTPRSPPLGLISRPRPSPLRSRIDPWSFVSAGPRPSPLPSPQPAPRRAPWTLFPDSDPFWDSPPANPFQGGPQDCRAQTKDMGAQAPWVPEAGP
Description: as §1

PASK = target: T25, PASK (Homo sapiens, UniProt Q96RG2)
T25 construct: purchased Reaction Biology Corp
Description: as §1

CK1a1L = target: T26, CK1a1L (Homo sapiens, UniProt Q8N752)
T26 construct: purchased Reaction Biology Corp
Description: as §1

AKT2 = target: T27, AKT2 (Homo sapiens, UniProt P31751)
T27 construct: purchased Reaction Biology Corp
Description: as §1

CLK4 = target: T28, CLK4 (Homo sapiens, UniProt Q9HAZ1)
T28 construct: purchased Reaction Biology Corp
Description: as §1

CDK2/cyclin E2 = target: T29, CDK2/cyclin E2 (Homo sapiens, UniProt P24941)
T29 construct: purchased Reaction Biology Corp
Description: as §1

PAK2 = target: T30, PAK2 (Homo sapiens, UniProt Q13177)
T30 construct: purchased Reaction Biology Corp
Description: as §1

DYRK2 = target: T31, DYRK2 (Homo sapiens, UniProt Q92630)
T31 construct: purchased Reaction Biology Corp
Description: as §1

ASK1/MAP3K5 = target: T32, ASK1/MAP3K5 (Homo sapiens, UniProt Q99683)
T32 construct: purchased Reaction Biology Corp
Description: as §1

CDK6/cyclin D3 = target: T33, CDK6/cyclin D3 (Homo sapiens, UniProt Q00534)
T33 construct: purchased Reaction Biology Corp
Description: as §1

CAMK2a = target: T34, CAMK2a (Homo sapiens, UniProt Q9UQM7)
T34 construct: purchased Reaction Biology Corp
Description: as §1

DMPK = target: T35, DMPK (Homo sapiens, UniProt Q09013)
T35 construct: purchased Reaction Biology Corp
Description: as §1

TESK2 = target: T36, TESK2 (Homo sapiens, UniProt Q96S53)
T36 construct: purchased Reaction Biology Corp
Description: as §1

GRK1 = target: T37, GRK1 (Homo sapiens, UniProt Q15835)
T37 construct: purchased Reaction Biology Corp
Description: as §1

Aurora A = target: T38, Aurora A (Homo sapiens, UniProt O14965)
T38 construct: purchased Reaction Biology Corp
Description: as §1

GRK3 = target: T39, GRK3 (Homo sapiens, UniProt P35626)
T39 construct: purchased Reaction Biology Corp
Description: as §1

KSR2 = target: T40, KSR2 (Homo sapiens, UniProt Q6VAB6)
T40 construct: purchased Reaction Biology Corp
Description: as §1

JNK3 = target: T41, JNK3 (Homo sapiens, UniProt P53779)
T41 construct: purchased Reaction Biology Corp
Description: as §1

ABL1 = target: T42, ABL1 (Homo sapiens, UniProt P00519)
T42 construct: purchased Reaction Biology Corp
Description: as §1

T1 sequence (Q92918 whole entry): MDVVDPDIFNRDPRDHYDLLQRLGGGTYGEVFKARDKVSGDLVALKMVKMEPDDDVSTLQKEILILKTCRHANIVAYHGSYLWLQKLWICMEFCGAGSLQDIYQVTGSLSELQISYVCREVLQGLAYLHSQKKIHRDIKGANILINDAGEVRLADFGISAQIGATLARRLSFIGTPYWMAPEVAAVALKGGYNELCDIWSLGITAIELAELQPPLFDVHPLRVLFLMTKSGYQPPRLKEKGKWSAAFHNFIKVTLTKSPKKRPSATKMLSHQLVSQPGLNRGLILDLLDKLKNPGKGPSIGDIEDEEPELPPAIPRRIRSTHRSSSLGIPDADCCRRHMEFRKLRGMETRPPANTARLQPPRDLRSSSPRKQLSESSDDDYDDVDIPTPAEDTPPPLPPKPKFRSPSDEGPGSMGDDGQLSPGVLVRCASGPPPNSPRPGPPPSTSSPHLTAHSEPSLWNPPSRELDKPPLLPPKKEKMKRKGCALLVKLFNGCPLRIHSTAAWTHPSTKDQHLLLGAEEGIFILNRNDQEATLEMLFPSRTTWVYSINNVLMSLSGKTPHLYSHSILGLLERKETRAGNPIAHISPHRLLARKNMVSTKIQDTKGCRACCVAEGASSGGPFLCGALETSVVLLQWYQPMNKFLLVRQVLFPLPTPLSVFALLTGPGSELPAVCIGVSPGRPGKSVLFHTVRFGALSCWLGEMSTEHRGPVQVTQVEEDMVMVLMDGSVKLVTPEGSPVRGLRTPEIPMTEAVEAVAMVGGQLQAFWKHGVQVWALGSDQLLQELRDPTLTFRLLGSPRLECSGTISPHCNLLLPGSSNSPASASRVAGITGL

`Cc1ccc(NC(=O)c2ccc(CN3CCN(C)CC3)c(C(F)(F)F)c2)cc1-c1cnc2sc(N)nc2c1` [6r] showed an inhibition at 1 µM (HPK1/MAP4K1) of 0%, an inhibition at 1 µM (ZAP70) of 8.7% and an inhibition at 1 µM (CDK17/cyclin Y (PCTK2)) of 3.9%. It also gave an inhibition at 1 µM (BMPR2) of 20.6%, an inhibition at 1 µM (DYRK1B) of 26.2% and an inhibition at 1 µM (BRSK1) of 0%. It also gave an inhibition at 1 µM (CAMKK1) of 7.2%, an inhibition at 1 µM (ERK5/MAPK7) of 6.5% and an inhibition at 1 µM (STK32C/YANK3) of 0.6%. It also gave an inhibition at 1 µM (CDK8/cyclin C) of 0%, an inhibition at 1 µM (PHKg1) of 19.6% and an inhibition at 1 µM (ULK2) of 0%. The inhibition at 1 µM (ALK6/BMPR1B) was 15%, the inhibition at 1 µM (JNK2) was 31.8% and the inhibition at 1 µM (MRCKb/CDC42BPB) was 2.4%. It also gave an inhibition at 1 µM (GLK/MAP4K3) of 15%, an inhibition at 1 µM (BMX/ETK) of 31.5% and an inhibition at 1 µM (SBK1) of 6.7%. For the same compound, the inhibition at 1 µM (DRAK1/STK17A) was 0%, the inhibition at 1 µM (NEK3) was 0% and the inhibition at 1 µM (SNARK/NUAK2) was 0%. The inhibition at 1 µM (STK39/STLK3) was 19.2%, the inhibition at 1 µM (MAST3) was 0% and the inhibition at 1 µM (MLK3/MAP3K11) was 23.7%. It also gave an inhibition at 1 µM (PASK) of 4.6%, an inhibition at 1 µM (CK1a1L) of 8.5% and an inhibition at 1 µM (AKT2) of 14%. It also gave an inhibition at 1 µM (CLK4) of 7.7%, an inhibition at 1 µM (CDK2/cyclin E2) of 8.3% and an inhibition at 1 µM (PAK2) of 5.4%. It also gave an inhibition at 1 µM (DYRK2) of 0.6%, an inhibition at 1 µM (ASK1/MAP3K5) of 0% and an inhibition at 1 µM (CDK6/cyclin D3) of 4.2%. It also gave an inhibition at 1 µM (CAMK2a) of 16%, an inhibition at 1 µM (DMPK) of 0% and an inhibition at 1 µM (TESK2) of 15.1%. It also gave an inhibition at 1 µM (GRK1) of 16.7%, an inhibition at 1 µM (Aurora A) of 0% and an inhibition at 1 µM (GRK3) of 0%. It also gave an inhibition at 1 µM (KSR2) of 0%, an inhibition at 1 µM (JNK3) of 5.1% and an inhibition at 1 µM (ABL1) of 60.8%.
